Like-named read-outs stand apart in the source and are kept apart here.
Tests used:
[1] = test system: individual cell lines of central nervous system (CNS) cancer; experiment: NCI 60-cell-line panel, summary by cancer type; format: cell-based
Method: (§1) Cell growth inhibition studies whose results are reported above were carried out at the National Cancer Institute essentially as follows. Cells grown in RPMI 1640 medium containing 5% fetal bovine serum and 2 mM L-glutamine were inoculated into 96-well microtiter plates, which were incubated for 24 hours prior to addition of CMAC-1 at five concentrations. After 48 hours, cold trichloroacetic acid was added, and the plates were washed and air dried. The cells were stained with sulforhodamine B (SRB), and the absorbance was read on an automated plate reader at a wavelength of 515 nm. The percentage growth was calculated at each of the drug concentrations. The growth inhibition of 50% (GI50) was then calculated. The GI50 is the drug concentration resulting in a 50% reduction in the net protein increase (as measured by SRB staining) in control cells during the drug incubation.

[2] = test system: individual cell lines of non-small-cell lung cancer (NSCLC); experiment: NCI 60-cell-line panel, summary by cancer type; format: cell-based
Method: as §1

[3] = test system: individual cell lines of ovarian cancer; experiment: NCI 60-cell-line panel, summary by cancer type; format: cell-based
Method: as §1

Melanoma = experiment: NCI 60-cell-line panel, summary by cancer type; format: cell-based
Method: as §1

[4] = test system: individual cell lines of prostate cancer; experiment: NCI 60-cell-line panel, summary by cancer type; format: cell-based
Method: as §1

renal cancer = experiment: NCI 60-cell-line panel, summary by cancer type; format: cell-based
Method: as §1

HOP-62 = experiment: NCI 60-cell-line cancer screen, growth inhibition (SRB); format: cell-based
Method: as §1

NCI-H322M = experiment: as above; format: cell-based; settings: NSCLC NCI-H322M, duplicate evaluations
Method: as §1

MCF7 = experiment: as above; format: cell-based
Method: as §1

HL60-(TB) = experiment: as above; format: cell-based; settings: Homo sapiens
Method: as §1

SF-268 = experiment: as above; format: cell-based
Method: as §1

M14 = experiment: as above; format: cell-based; settings: Homo sapiens; Melanoma M14; 48 hours; duplicate evaluations
Method: as §1

NCI/ADR-RES = experiment: as above; format: cell-based; settings: Breast NCI/ADR-RES, duplicate evaluations
Method: as §1

SR = experiment: as above; format: cell-based; settings: Homo sapiens
Method: as §1

MALMI-3M = experiment: as above; format: cell-based; settings: Melanoma MALMI-3M, duplicate evaluations
Method: as §1

MDA-MB-435 = experiment: as above; format: cell-based; settings: Homo sapiens
Method: as §1

UACC-257 = experiment: as above; format: cell-based
Method: as §1

U251 = experiment: as above; format: cell-based
Method: as §1

RPMI-8226 = experiment: as above; format: cell-based; settings: Homo sapiens
Method: as §1

EKVX = experiment: as above; format: cell-based; settings: NSCLC EKVX, duplicate evaluations
Method: as §1

NCI-H460 = experiment: as above; format: cell-based
Method: as §1

OVCAR-8 = experiment: as above; format: cell-based
Method: as §1

SF-539 = experiment: as above; format: cell-based
Method: as §1

SF-295 = experiment: as above; format: cell-based
Method: as §1

SW-620 = experiment: as above; format: cell-based; settings: Homo sapiens
Method: as §1

CCRF-CEM = experiment: as above; format: cell-based; settings: Leukemia CCRF-CEM, duplicate evaluations
Method: as §1

SNB-75 = experiment: as above; format: cell-based
Method: as §1

HS 578T = experiment: as above; format: cell-based; settings: Breast HS 578T, duplicate evaluations
Method: as §1

K562 = experiment: as above; format: cell-based; settings: Homo sapiens
Method: as §1

NCI-H522 = experiment: as above; format: cell-based
Method: as §1

HT29 = experiment: as above; format: cell-based
Method: as §1

OVCAR-3 = experiment: as above; format: cell-based
Method: as §1

NCI-H226 = experiment: as above; format: cell-based
Method: as §1

HCT-15 = experiment: as above; format: cell-based; settings: Homo sapiens
Method: as §1

MIA PaCa-2 cells = experiment: Growth inhibition assay in pancreatic cancer cell lines (MTS); format: cell-based, human
Method: (§2) Growth inhibition assays for determination of GI50 values in pancreatic cancer cell lines were typically carried out essentially as follows. Compounds were individually tested at various concentrations against cancer cells grown in cell culture. The cell viability was determined by use of a standard assay that employs 3-(4,5-dimethylthiazol-2-yl)-5-(3-carboxymethoxyphenyl)-2-(4-sulfophenyl)-2H-tetrazolium, inner salt (MTS), and an electron coupling reagent, phenazine methosulfate (PMS). Absorbance at 490 nm (A490) was measured, and survival curves were obtained by comparison of A490 from treated cells with A490 from untreated cells (control). GI50 values were calculated from nonlinear curve fitting.

[5] = test system: BxPC-3 (pancreatic) cancer cells; experiment: as above; format: cell-based; settings: read-out: 50% growth inhibition (GI50)
Method: as §2

C/C=C/C(=O)SCC(=O)Oc1cc(/C=C/C(=O)c2cc(OC)c(OC)c(OC)c2)ccc1OC [CMAC-1, 3-[3-(crotonylsulfanylmethylcarbonyloxy)-4-methoxyphenyl]-1-(3,4,5-trimethoxyphenyl)propenone]
melting point: 123 to 125.5 °C
GI50 [1]: < 50 nM
GI50 [2]: < 50 nM
GI50 [3]: < 50 nM
GI50 (Melanoma): < 75 nM
GI50 [4]: < 50 nM
GI50 (renal cancer): < 150 nM
GI50 (HOP-62; Homo sapiens, HOP-62, 48 h, NSCLC HOP-62, duplicate evaluations): 1230 nM
GI50 (HOP-62; NSCLC HOP-62, 48 hours, duplicate evaluations): 1000 nM
GI50 (NCI-H322M; Homo sapiens, NCI-H322M, 48 h): 85.1 nM
GI50 (NCI-H322M; 48 hours): 70.3 nM
GI50 (MCF7; Breast MCF7, 48 hours, duplicate evaluations): 30 nM
GI50 (MCF7; Homo sapiens, MCF7, 48 h, Breast MCF7, duplicate evaluations): 28.5 nM
GI50 (HL60-(TB); HL-60, Leukemia HL60-(TB), 48 hours, duplicate evaluations): < 10 nM
GI50 (HL60-(TB); leukemia HL-60, Table 2): < 10 nM
GI50 (SF-268; CNS SF-268, 48 hours, duplicate evaluations): 63.8 nM
GI50 (SF-268; Homo sapiens, SF-268, 48 h, CNS SF-268, duplicate evaluations): 81.1 nM
GI50 (M14): 62.3 nM
GI50 (NCI/ADR-RES; 48 hours): 32.2 nM
GI50 (NCI/ADR-RES; Homo sapiens, NCI/ADR-RES, 48 h): 26.2 nM
GI50 (SR; Leukemia SR, 48 hours, duplicate evaluations): < 10 nM
GI50 (SR; leukemia SR, Table 2): < 10 nM
GI50 (MALMI-3M; 48 h): 74.2 nM
GI50 (MALMI-3M; 48 hours): 44.7 nM
GI50 (MDA-MB-435; Breast MDA-MB-435, 48 hours, duplicate evaluations): < 10 nM
GI50 (MDA-MB-435; breast cancer cells MDA-MB-435, Table 2): < 10 nM
GI50 (UACC-257; Homo sapiens, UACC-257, 48 h, Melanoma UACC-257, duplicate evaluations): 3580 nM
GI50 (UACC-257; Melanoma UACC-257, 48 hours, duplicate evaluations): 4140 nM
GI50 (U251; CNS U251, 48 hours, duplicate evaluations): 52.1 nM
GI50 (U251; Homo sapiens, U-251, 48 h, CNS U251, duplicate evaluations): 42.7 nM
GI50 (RPMI-8226; Leukemia RPMI-8226, 48 hours, duplicate evaluations): < 10 nM
GI50 (RPMI-8226; leukemia RPMI-8226, Table 2): < 10 nM
GI50 (EKVX; Homo sapiens, EKVX, 48 h): 2090 nM
GI50 (EKVX; 48 hours): 1700 nM
GI50 (NCI-H460; Homo sapiens, NCI-H460, 48 h, NSCLC NCI-H460, duplicate evaluations): 52.4 nM
GI50 (NCI-H460; NSCLC NCI-H460, 48 hours, duplicate evaluations): 33.5 nM
GI50 (OVCAR-8; Homo sapiens, OVCAR-8, 48 h, Ovarian OVCAR-8, duplicate evaluations): 43.9 nM
GI50 (OVCAR-8; Ovarian OVCAR-8, 48 hours, duplicate evaluations): 47.1 nM
GI50 (SF-539; CNS SF-539, 48 hours, duplicate evaluations): < 10 nM
GI50 (SF-539; Homo sapiens, 48 h, CNS SF-539, duplicate evaluations): 16.4 nM
GI50 (SF-295; CNS SF-295, 48 hours, duplicate evaluations): 231 nM
GI50 (SF-295; Homo sapiens, SF-295, 48 h, CNS SF-295, duplicate evaluations): 215 nM
GI50 (SW-620; Colon SW-620, 48 hours, duplicate evaluations): < 10 nM
GI50 (SW-620; colon SW-620, Table 2): < 10 nM
GI50 (CCRF-CEM; Homo sapiens, CCRF-CEM, 48 h): 71.6 nM
GI50 (CCRF-CEM; 48 hours): 86 nM
GI50 (SNB-75; CNS SNB-75, 48 hours, duplicate evaluations): < 10 nM
GI50 (SNB-75; Homo sapiens, SNB-75, 48 h, CNS SNB-75, duplicate evaluations): 16.5 nM
GI50 (HS 578T; 48 hours): 20.6 nM
GI50 (HS 578T; Homo sapiens, Hs-578T, 48 h): 40.4 nM
GI50 (K562; K562, leukemia K-562, Table 2): < 10 nM
GI50 (K562; Leukemia K562, 48 hours, duplicate evaluations): < 10 nM
GI50 (NCI-H522; Homo sapiens, NCI-H522, 48 h, NSCLC NCI-H522, duplicate evaluations): 22.4 nM
GI50 (NCI-H522; NSCLC NCI-H522, 48 hours, duplicate evaluations): 15.8 nM
GI50 (HT29; Colon HT29, 48 hours, duplicate evaluations): 1680 nM
GI50 (HT29; Homo sapiens, HT-29, 48 h, Colon HT29, duplicate evaluations): 2870 nM
GI50 (OVCAR-3; Homo sapiens, OVCAR-3, 48 h, Ovarian OVCAR-3, duplicate evaluations): 11.6 nM
GI50 (OVCAR-3; Ovarian OVCAR-3, 48 hours, duplicate evaluations): < 10 nM
GI50 (NCI-H226; Homo sapiens, NCI-H226, 48 h, NSCLC NCI-H226, duplicate evaluations): 17200 nM
GI50 (NCI-H226; NSCLC NCI-H226, 48 hours, duplicate evaluations): 11200 nM
GI50 (HCT-15; Colon HCT-15, 48 hours, duplicate evaluations): < 10 nM
GI50 (HCT-15; colon HCT-15, Table 2): < 10 nM
GI50 (MIA PaCa-2 cells; Homo sapiens, MIA PaCa-2 pancreatic cancer cells in culture, read-out: concentration required for 50% growth inhibition (GI50)): 16 nM

C/C=C/C(=O)SCC(=O)OCc1ccc(/C=C/C(=O)c2cc(OC)c(OC)c(OC)c2)o1 [CMAF-1, 3-[5-(crotonylsulfanylmethylcarbonyloxymethyl)-2-furyl]-1-(3,4,5-trimethoxyphenyl)propenone]
GI50 (MIA PaCa-2 cells; human pancreatic cancer cell (MIA PaCa-2) growth in culture, read-out: GI50): 17000 nM

C=C(Cl)C(=O)Oc1cc(C=CC(=O)c2cc(OC)c(OC)c(OC)c2)ccc1OC [Entry 6, 3-[3-(2-Chloroacryloyloxy)-4-methoxyphenyl]-1-(3,4,5-trimethoxyphenyl)propenone]
GI50 [5]: 4500 nM
GI50 (MIA PaCa-2 cells; MIA PaCa-2 pancreatic cancer cells in culture, read-out: concentration required for 50% growth inhibition (GI50)): 56 nM
